pIC50: −log10 of the molar value. *1 amine or outer side, *2 acyl side, *3 side chain or, on linkers, in order; H or OH if unused. Where a SMILES comes first, the peptide text is derived from it. Bridges are numbered along the chain shown (N, C = ends). [ ]: non-standard residue; d: D form. Trp(1-CH2CO) = O=C([C@H](Cc1cn(CC(=O)[*:3])c2ccccc12)N[*:1])[*:2]; X28 = O=C([C@H](CNCc1cc(F)c(F)cc1B(O)O[*:3])N[*:1])[*:2]; Trp(1-CH2COOH) = N[C@@H](Cc1cn(CC(=O)O)c2ccccc12)C(=O)O; X30 = O=C([C@H](CNCc1ccc(B(O)O)cc1C(F)(F)F)N[*:1])[*:2]; X1 = Cc1cc(CNC[C@H](N[*:1])C(=O)[*:2])cc(C)c1B(O)O; X10 = COc1ccc(CNC[C@H](N[*:1])C(=O)[*:2])cc1B(O)O; Hyp = O=C(O)[C@@H]1C[C@@H](O)CN1; NMeNle = CCCC[C@H](NC)C(=O)O; NMeA = CN[C@@H](C)C(=O)O; Dab = NCC[C@H](N)C(=O)O

The target of this test is PD-1/PD-L1 (Homo sapiens (Human), UniProt Q9NZQ7). Description: PD-1/PD-L1 Homogenous Time-Resolved Fluorescence (HTRF) binding assay. The following applies: PD-L1-His 10 nM, PD-1-Ig 20 nM; read-out: HTRF IC50. The text has this: Methods for Testing the Ability of Macrocyclic Peptides to Compete for the Binding of PD-1 to PD-L1 Using Homogenous Time-Resolved Fluorescence (HTRF) Binding Assays
Sequence of PD-1/PD-L1 (Q9NZQ7 18-239): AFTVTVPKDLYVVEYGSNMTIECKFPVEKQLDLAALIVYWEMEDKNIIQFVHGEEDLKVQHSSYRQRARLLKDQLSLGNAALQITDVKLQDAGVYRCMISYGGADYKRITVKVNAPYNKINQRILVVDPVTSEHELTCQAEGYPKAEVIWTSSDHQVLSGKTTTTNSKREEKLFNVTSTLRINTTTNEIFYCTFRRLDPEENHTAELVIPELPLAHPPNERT
The ability of the compounds of formula (I) to bind to PD-L1 was investigated using a PD-1/PD-L1 Homogenous Time-Resolved Fluorescence (HTRF) binding assay.
Homogenous Time-Resolved Fluorescence (HTRF) Binding Assay
The interaction of PD-1 and PD-L1 can be assessed using soluble, purified preparations of the extracellular domains of the two proteins. The PD-1 and PD-L1 protein extracellular domains were expressed as fusion proteins with detection tags, for PD-1, the tag was the Fc portion of Immunoglobulin (PD-1-Ig) and for PD-L1 it was the 6 histidine motif (PD-L1-His). All binding studies were performed in an HTRF assay buffer consisting of dPBS supplemented with 0.1% […] bovine serum albumin and 0.05% (v/v) Tween-20. For the h/PD-L1-His binding assay, inhibitors were pre-incubated with PD-L1-His (10 nM final) for 15 m in 4 μl of assay buffer, followed by addition of PD-1-Ig (20 nM final) in 1 μl of assay buffer and further incubation for 15 m. HTRF detection was achieved using europium cryptate-labeled anti-Ig (1 nM final) and allophycocyanin (APC) labeled anti-His (20 nM final). Antibodies were diluted in HTRF detection buffer and 5 μl was dispensed on top of the binding reaction. The reaction mixture was allowed to equilibrate for 30 minutes and the resulting signal (665 nm/620 nm ratio) was obtained using an EnVision fluorometer. Additional binding assays were established between the human proteins PD-1-Ig/PD-L2-His (20 & 5 nM, respectively) and CD80-His/PD-L1-Ig (100 & 10 nM, respectively).
Recombinant Proteins: Human PD-1 (25-167) with a C-terminal human Fc domain of immunoglobulin G (Ig) epitope tag [hPD-1 (25-167)-3S-IG] and human PD-L1 (18-239) with a C-terminal His epitope tag [hPD-L1(18-239)-TVMV-His] were expressed in HEK293T cells and purified sequentially by ProteinA affinity chromatography and size exclusion chromatography. Human PD-L2-His and CD80-His was obtained through commercial sources.
Table 1 lists the IC50 values for representative examples of this disclosure measured in the PD-1/PD-L1 Homogenous Time-Resolved Fluorescence (HTRF) binding assay.
For orientation: Time-resolved FRET reads energy transfer from a long-lived donor to a nearby acceptor.

What is called pIC50 is the negative decadic logarithm of the IC50, by convention in mol/L. As to `CCCC[C@H]1C(=O)N(C)[C@@H](CCCC)C(=O)N[C@@H](CC(C)C)C(=O)N[C@H](C(=O)NCC(N)=O)CSCC(=O)N[C@@H](Cc2ccc(O)cc2)C(=O)N(C)[C@@H](C)C(=O)N[C@@H](CC(N)=O)C(=O)N2CCC[C@H]2C(=O)N[C@@H](CNCc2ccc(OC)c(B(O)O)c2)C(=O)N[C@@H](CC(C)C)C(=O)N2C[C@H](O)C[C@H]2C(=O)N[C@@H](Cc2c[nH]c3ccccc23)C(=O)N[C@@H](CCN)C(=O)N[C@@H](Cc2cn(CC(=O)O)c3ccccc23)C(=O)N1C` [Example 1023] ({CH2CO}-Y[NMeA]NP[X10]L[Hyp]W[Dab][Trp(1-CH2COOH)][NMeNle][NMeNle]LCG-NH2; thioether N-14), the pIC50 is 8.01. In the case of `CCCC[C@H]1C(=O)N(C)[C@@H](CCCC)C(=O)N[C@@H](CC(C)C)C(=O)N[C@H](C(=O)NCC(N)=O)CSCC(=O)N[C@@H](Cc2ccc(O)cc2)C(=O)N(C)[C@@H](C)C(=O)N[C@@H](CC(N)=O)C(=O)N2CCC[C@H]2C(=O)N[C@H]2CNCc3cc(F)c(F)cc3B(O)OC(=O)Cn3cc(c4ccccc43)C[C@H](NC(=O)[C@H](CCN)NC(=O)[C@H](Cc3c[nH]c4ccccc34)NC(=O)[C@@H]3C[C@@H](O)CN3C(=O)[C@H](CC(C)C)NC2=O)C(=O)N1C` [Example 1024] ({CH2CO}-Y[NMeA]NP[X28]L[Hyp]W[Dab][Trp(1-CH2CO)][NMeNle][NMeNle]LCG-NH2; ester 5-10; thioether N-14) it was 8.03. With `CCCC[C@H]1C(=O)N(C)[C@@H](CCCC)C(=O)N[C@@H](CC(C)C)C(=O)N[C@H](C(=O)NCC(N)=O)CSCC(=O)N[C@@H](Cc2ccc(O)cc2)C(=O)N(C)[C@@H](C)C(=O)N[C@@H](CC(N)=O)C(=O)N2CCC[C@H]2C(=O)N[C@@H](CNCc2ccc(B(O)O)cc2C(F)(F)F)C(=O)N[C@@H](CC(C)C)C(=O)N2C[C@H](O)C[C@H]2C(=O)N[C@@H](Cc2c[nH]c3ccccc23)C(=O)N[C@@H](CCN)C(=O)N[C@@H](Cc2cn(CC(=O)O)c3ccccc23)C(=O)N1C` [Example 1025] ({CH2CO}-Y[NMeA]NP[X30]L[Hyp]W[Dab][Trp(1-CH2COOH)][NMeNle][NMeNle]LCG-NH2; thioether N-14), the pIC50 is 7.85. Regarding `CCCC[C@H]1C(=O)N(C)[C@@H](CCCC)C(=O)N[C@@H](CC(C)C)C(=O)N[C@H](C(=O)NCC(N)=O)CSCC(=O)N[C@H]2Cc3ccc(cc3)OB(O)c3ccc(cc3F)CNCC[C@@H]3NC(=O)[C@H](Cc4c[nH]c5ccccc45)NC(=O)[C@@H]4C[C@@H](O)CN4C(=O)[C@H](CC(C)C)NC(=O)[C@H](CNCc4ccc(c(F)c4)B(O)OC(=O)Cn4cc(c5ccccc54)C[C@H](NC3=O)C(=O)N1C)NC(=O)[C@@H]1CCCN1C(=O)[C@H](CC(N)=O)NC(=O)[C@H](C)N(C)C2=O` [Example 1026], the negative-log IC50 (pIC50) is 8.40. In the case of `CCCC[C@H]1C(=O)N(C)[C@@H](CCCC)C(=O)N[C@@H](CC(C)C)C(=O)N[C@H](C(=O)NCC(N)=O)CSCC(=O)N[C@@H](Cc2ccc(O)cc2)C(=O)N(C)[C@@H](C)C(=O)N[C@@H](CC(N)=O)C(=O)N2CCC[C@H]2C(=O)N[C@@H](CNCc2cc(C)c(B(O)O)c(C)c2)C(=O)N[C@@H](CC(C)C)C(=O)N2C[C@H](O)C[C@H]2C(=O)N[C@@H](Cc2c[nH]c3ccccc23)C(=O)N[C@@H](CCN)C(=O)N[C@@H](Cc2cn(CC(=O)O)c3ccccc23)C(=O)N1C` [Example 1027] ({CH2CO}-Y[NMeA]NP[X1]L[Hyp]W[Dab][Trp(1-CH2COOH)][NMeNle][NMeNle]LCG-NH2; thioether N-14), the pIC50 is 8.42. In the case of `CCCC[C@H]1C(=O)N(C)[C@@H](CCCC)C(=O)N[C@@H](CC(C)C)C(=O)N[C@H](C(=O)NCC(N)=O)CSCC(=O)N[C@H]2Cc3ccc(cc3)OB(O)c3ccc(c(F)c3)CNCC[C@@H]3NC(=O)[C@H](Cc4c[nH]c5ccccc45)NC(=O)[C@@H]4C[C@@H](O)CN4C(=O)[C@H](CC(C)C)NC(=O)[C@H](CNCc4ccc(cc4F)B(O)OC(=O)Cn4cc(c5ccccc54)C[C@H](NC3=O)C(=O)N1C)NC(=O)[C@@H]1CCCN1C(=O)[C@H](CC(N)=O)NC(=O)[C@H](C)N(C)C2=O` [Example 1028] it was 8.34.
